Assay results taken from US8609432B2, “Method and kit for detection of autoimmune chronic urticaria” (priority 2005, dated 2013).

Columns and labels:
[1] = tested on: basophils, CD63 expression; settings: cited from earlier work
[2] = tested on: basophils, CD203c expression; settings: cited from earlier work
[3] = tested on: basophils (CD203c/IgE positive cells) in donor whole blood; assay: Measurement of CD203c surface expression on donor basophils by flow cytometry; type: cell-based, human; settings: positive controls, donor heparinized whole blood incubated 10 minutes at 37° C.; above buffer baseline; mean ±SEM, n=4
Protocol: Whole blood from seven normal individuals was screened and one donor was identified based on the marked upregulation of CD203c on basophils (CD203c/IgE positive cells) in response to fMLP and anti-FcεRIα antibody.
The test was carried out on heparinized blood within 3-4 hours after drawing the donor's blood. Two hundred μL aliquots of the donor's heparinized whole blood were incubated for 10 minutes at 37° C. with 40 μL of sera from CU patients, normal controls, or IgG depleted sera. For controls, 40 μL basophil stimulation buffer (20 mM HEPES, 125 mM NaCl, 5 mM KCl, 2.5 mM CaCl2, 1 mM MgCl2, 0.5 mM glucose, and 0.1% BSA, pH 7.4) was added to 200 μL of donor's blood and used as the negative control while 40 μL of […] f-Met-Leu-Phe (fMLP, Sigma, St. Louis, Mo.) and 40 μL of a 1:50 dilution of anti-FcεRIα receptor antibody (Upstate, Charlottesville, Va.) in Ca++ and Mg++ free phosphate buffered saline (PBS) were used as positive controls. […] The cells were then analyzed on a FACSCalibur flow cytometer (Becton Dickinson, San Jose, Calif.).
Basophils from whole blood were identified by the presence of CD203c on high expressing IgE positive cells (FIGS. 1A and 1B). The data are expressed as the mean fluorescence intensity or the percentage of CD203c expression. […] This was determined by defining an M1 region on the histogram analysis (FIG. 1C).

| Compound | stimulation of CD63 expression [1] | induction of CD203c expression [2] | mean percent basophil CD203c expression [3] |
| --- | --- | --- | --- |
| CCCCC[C@H](O)/C=C/[C@H]1C(=O)C[C@H](O)[C@@H]1C/C=C\CCCC(=O)O [PGD2] | does not stimulate | strong inducer | – |
| f-Met-Leu-Phe [fMLP] | – | – | 34.5%±14.6 |
